The results in this text go back to patent publication US12121514B2, “Nonselective metabotropic glutamate receptor activators for treatment of attention deficit disorder and 22Q syndrome” (THE CHILDREN'S HOSPITAL OF PHILADELPHIA, priority 2015, dated 2024).

Structures are written as SMILES.

What all share (format): in vivo, human
Experiment [1] relates to ADHD subject with depression. In words: Vanderbilt depression items 43-46, Phase Ib trial of NFC-1. The following applies: one subject scoring 3 on all 4 items at week 1; week 5. From the text: (§1) The Vanderbilt Rating Scale is a measure that can be completed by parents or teachers (separate forms, see Vanderbilt Rating Scale Parents and Vanderbilt Rating Scale Teachers). The Vanderbilt scale rates the child's behavior on items such as attention, finishing tasks, hyperactivity, difficulty waiting, and measures of conduct or oppositional defiant disorders—as well as measures of overall school performance and interactions with others. The first 18 items on the Vanderbilt scale correspond to those of the ADHD Rating Scale IV above while the Vanderbilt scale also includes items 19-47 related to other mental disorders including ODD (items 19-26), conduct disorder (items 27-40), anxiety (items 41, 42, and 47), and depression (items 43-46). Each of the behavioral assessment items on the Vanderbilt Scale are rated 0, 1, 2, or 3, with 0=never occurring; 1=occasionally, 2=often, and 3=very often. Thus, the ADHD Rating Scale IV, ADHD Rating Scale V, and items 1-18 of the Vanderbilt Rating Scale are equivalent scales, while additional items on the Vanderbilt Scale assess co-morbid phenotypes and disorders.
Two subjects had maximum scores of 3 on 2 of the 3 Vanderbilt items 41, 42, and 47 that are related to anxiety at enrollment. […] One of those subjects also scored 3 on 3 of the 4 Vanderbilt items related to depression (items 43-46) at enrollment and scored 3 on all 4 items at week 1.

Experiment [2] concerns adolescent subjects with ADHD and at least one genetic alteration in an mGluR network gene. In words: Actigraphy, Phase Ib trial of NFC-1. The text has this: Actigraphy is non-invasive monitoring of human rest/activity cycles, using an actigraph worn by the patient to document body movements. Actigraphs can be worn during school, for example, to measure activity levels. Actigraphy analysis can measure changes in sleep and hyperactivity that may be seen with treatment for ADHD.
All efficacy assessments, except actigraphy, were made at study enrollment (“enrollment baseline”) and again, including actigraphy, once-per-week for the placebo week (“week 1” or “placebo baseline”) and at each of the 4 weeks of NFC-1 treatment. These efficacy measures include items 1-18 of the Vanderbilt scale assessing symptoms related to inattentiveness and hyperactivity-impulsiveness as well as additional questions 19-47 of the Vanderbilt scale assessing other behavioral symptoms (conducted by parent), actigraphy for quantitative measurement of activity, Quotient® ADHD test for objective measurement of micro-motion and shifts in attention state, PERMP-Math test, and CGI-I and CGI-S for assessment of global functioning. […]

The test system of experiment [3] is subjects with ADHD and ODD. In words: Vanderbilt ODD score (items 19-26), Phase Ib trial of NFC-1.
Excerpt: as §1
Subjects were identified as ODD from the K-SADS-P V6 performed at screening and Vanderbilt scores for ODD at screening and at week 1(scores of 2 or 3 on at least 4 of the 8 Vanderbilt items that assess ODD, i.e., items 19 to 26). By the end of the dose escalation phase of the trial at week 5, four of the twelve subjects (nos. 108, 117, 125, and 128) no longer met the screening criteria for ODD.

Experiment [4] has as its system adolescent subjects with ADHD and at least one genetic alteration in an mGluR network gene. In words: QUOTIENT ADHD test, Phase Ib trial of NFC-1. The following applies: Tier-1 genetic group; week 5 (400 mg twice daily); from just over 100; P<0.05. From the text: Quotient ADHD scores use a medical device to measure hyperactivity, attention, and impulsivity in patients with ADHD. The Quotient ADHD tool uses motion tracking technology to track a patient's micro-movements while they complete a 15-20-minute computerized test. Following the patient's completion of the test, patterns of motions, the accuracy of responses, and fluctuations in attention state can be analyzed. All efficacy assessments, except actigraphy, were made at study enrollment (“enrollment baseline”) and again, including actigraphy, once-per-week for the placebo week (“week 1” or “placebo baseline”) and at each of the 4 weeks of NFC-1 treatment. These efficacy measures include items 1-18 of the Vanderbilt scale assessing symptoms related to inattentiveness and hyperactivity-impulsiveness as well as additional questions 19-47 of the Vanderbilt scale assessing other behavioral symptoms (conducted by parent), actigraphy for quantitative measurement of activity, Quotient® ADHD test for objective measurement of micro-motion and shifts in attention state, PERMP-Math test, and CGI-I and CGI-S for assessment of global functioning. […]

The mark [5] stands for this setting: out of the 13 ODD subjects, week 1 to week 5.

Regarding `O=C1CC[C@H](C(=O)N2CCCCC2)N1` [NFC-1, fasoracetam monohydrate], the “scores on Vanderbilt depression items 43-46” value in experiment [1] is “scored either 1 or 2 on all 4 items”. Moreover, in experiment [2] (400 mg bid in comparison with placebo, P<0.001), the “bursts of medium/high intensity movements (actigraphy)” value is on record as “significant reduction”. Besides, the “reduction in moderate to vigorous physical activity (MVPA)” value in experiment [2] (week 1 (placebo) to week 5, genetic Tiers 1, 2 and 3) is given as “most prominent in 400 mg bid dose group”. For the same compound, the “Vanderbilt ODD score (items 19-26, maximum 24)” value is on record as 7 in experiment [3] (Subject 108, end of week 5, placebo baseline 19); 8 in experiment [3] (Subject 117, week 5, placebo baseline 19); 8 in experiment [3] (Subject 128, week 5, placebo baseline 24). In addition, the “improvement in Vanderbilt ODD score” value in experiment [3] (Subject 130, week 1 to week 5) is reported as 3 points. The “Vanderbilt ODD score” value in experiment [3] (Subject 130, week 5, out of 24, 24/24 at week 1) turned out to be 21. Besides, in experiment [3] (of 13 ODD subjects, week 1 to week 5), the “subjects with improved Vanderbilt ODD scores” value was found to be 13 subjects. For the same compound, in experiment [3] (of the remaining eight ODD subjects, week 1 to week 5), the “subjects showing improvements of 2 or more points in Vanderbilt ODD items” value is “four”. In experiment [3] (of the twelve ADHD/ODD subjects, week 5), the “subjects no longer meeting the screening criteria for ODD” value is “four”. For the same compound, the “subjects with improvement of at least 3 points in Vanderbilt ODD score” value in experiment [3] (setting [5]) is recorded as “Eleven”. Also, in experiment [3] (setting [5]), the “subjects with improvement of at least 8 points in Vanderbilt ODD score” value came to 6 subjects. For the same compound, the “Vanderbilt ODD scores in subjects on anti-psychotic medications” value in experiment [3] (subjects 111 and 126 on aripiprazole, subject 122 on risperidone, between weeks 1 and 5) was “improved”. Also, the “normalized inattention value (QUOTIENT ADHD test)” value in experiment [4] was “about 90”.
